Measured values taken from US8754073B2, “Substituted piperazino-dihydrothienopyrimidines” (Boehringer Ingelheim International GmbH, priority 2007, dated 2014).

Molecular target: PDE4B (Homo sapiens, UniProt Q07343)
Assay: Scintillation Proximity Assay (SPA) of PDE4B enzyme activity ([H3]-cAMP cleavage)
Assay type: biochemical
Conditions: test substance 1 μM
Method in brief: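 Percent inhibition at 1 μM compound, measured against an uninhibited reaction. PDE4B hydrolysed tritiated cAMP for one hour at 30 °C, then scintillator beads were added to capture [H3]-5′-AMP. Light events were counted after 45 min bead settling.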

[1] = one-hour incubation with [H3]-cAMP at 30° C.
[2] = one-hour incubation of [H3]-cAMP with PDE4B enzyme at 30° C.

PDE4B, sequence (Q07343 whole entry, species assumed): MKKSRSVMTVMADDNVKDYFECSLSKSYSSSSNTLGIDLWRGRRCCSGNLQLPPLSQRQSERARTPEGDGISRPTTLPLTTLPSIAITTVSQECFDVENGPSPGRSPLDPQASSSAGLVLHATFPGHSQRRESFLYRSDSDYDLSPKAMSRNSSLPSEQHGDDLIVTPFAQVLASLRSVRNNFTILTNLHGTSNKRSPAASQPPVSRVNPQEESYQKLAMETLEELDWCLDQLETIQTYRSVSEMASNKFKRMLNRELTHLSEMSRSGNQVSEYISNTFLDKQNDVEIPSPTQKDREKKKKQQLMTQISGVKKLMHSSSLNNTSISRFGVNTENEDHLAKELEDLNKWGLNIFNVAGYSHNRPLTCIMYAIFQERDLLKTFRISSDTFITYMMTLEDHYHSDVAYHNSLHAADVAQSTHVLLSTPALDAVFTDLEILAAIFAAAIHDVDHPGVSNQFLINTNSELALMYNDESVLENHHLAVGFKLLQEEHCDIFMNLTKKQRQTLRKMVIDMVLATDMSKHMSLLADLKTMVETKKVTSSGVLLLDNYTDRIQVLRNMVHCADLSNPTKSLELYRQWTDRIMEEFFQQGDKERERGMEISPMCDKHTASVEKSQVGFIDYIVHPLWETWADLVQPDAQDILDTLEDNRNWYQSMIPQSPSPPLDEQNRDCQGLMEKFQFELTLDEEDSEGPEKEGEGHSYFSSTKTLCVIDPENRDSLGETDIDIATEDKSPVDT

inhibition at 1 µM [1]	inhibition at 1 µM [2]	Compound
97%		CN1C[C@@H](Nc2nc(N3CCC(c4nc5ccc(Cl)cc5o4)CC3)nc3c2[S+]([O-])CC3)CCC1=O (stereo partly shown) [Example 194, 5-{2-[4-(6-Chlorbenzoxazol-2-yl)-piperidin-1-yl]-5-oxo-6,7-dihydro-5H-5λ^4-thieno[3,2-d]pyrimidin-4-ylamino}-1-methylpiperidin-2-one]
	95%	N#Cc1ccc(C2CCN(c3nc4c(c(NC5(CO)CC5)n3)[S+]([O-])CC4)CC2)cc1 (stereo not shown) [Example 35]
	93%	COc1ccc(C2CCN(c3nc4c(c(N[C@@H](CO)C(C)C)n3)[S+]([O-])CC4)CC2)cc1 (stereo partly shown) [Example 148]
80%		[O-][S+]1CCc2nc(N3CCC(Oc4ccncc4)CC3)nc(NC3CCOCC3)c21 (stereo not shown) [Example 268]
94%		CC(=O)N(C)CC1(c2ccccc2)CCN(c2nc3c(c(N[C@H]4CCC(=O)N(C)C4)n2)[S+]([O-])CC3)CC1 (stereo partly shown) [Example 274, N-methyl-N-{1-[4-(1-methyl-6-oxo-piperidin-3-ylamino)-5-oxo-6,7-dihydro-5H-5λ^4-thieno[3,2-d]pyrimidin-2-yl]-4-phenylpiperidin-4-ylmethyl}-acetamide]
95%		Cc1cn(C)nc1CN(C)C(=O)c1ccc(C2CCN(c3nc4c(c(NC5CCOCC5)n3)[S+]([O-])CC4)CC2)cc1 (stereo not shown) [Example 226]
	94%	[O-][S+]1CCc2nc(N3CCC(c4ccc(Cl)cc4)CC3)nc(NC3CCOCC3)c21 (stereo not shown) [Example 6, {2-[4-(4-chlorophenyl)-piperidin-1-yl]-5-oxo-6,7-dihydro-5H-5λ^4-thieno[3,2-d]pyrimidin-4-yl}-(tetrahydropyran-4-yl)-amine]
	95%	[O-][S+]1CCc2nc(N3CCC(c4nc5cc(Cl)ccc5s4)CC3)nc(Nc3cccc(F)c3)c21 (stereo not shown) [Example 134]
	97%	[O-][S+]1CCc2nc(N3CCC(c4noc5ccccc45)CC3)nc(NC3(CO)CC3)c21 (stereo not shown) [Example 31]
	88%	CN1C(=O)Nc2ccccc2C12CCN(c1nc3c(c(NC4CCOCC4)n1)[S+]([O-])CC3)CC2 (stereo not shown) [Example 58, 3′-Methyl-1-(4-(Tetrahydro-2H-Pyran-4-Ylamino)-5-Oxo-6,7-Dihydro-5H-5λ^4-Thieno[3,2-d]Pyrimidin-2-Yl)-1′H-Spiro[Piperidin-4,4′-Quinazolin]-2′(3′H)-One]
	95%	CN1C[C@@H](Nc2nc(N3CCC(c4c[nH]cn4)CC3)nc3c2[S+]([O-])CC3)CCC1=O (stereo partly shown) [Example 42]
	86%	[O-][S+]1CCc2nc(N3CCC(c4c[nH]cn4)CC3)nc(NC3CCOCC3)c21 (stereo not shown) [Example 57]
	95%	CN1C[C@@H](Nc2nc(N3CCC4(CC3)CN(S(C)(=O)=O)c3ccccc34)nc3c2[S+]([O-])CC3)CCC1=O (stereo partly shown) [Example 44]
89%		COCC1(c2ccc(Cl)cc2)CCN(c2nc3c(c(N[C@@H](CO)C(C)C)n2)[S+]([O-])CC3)CC1 (stereo partly shown) [Example 304]
	88%	[O-][S+]1CCc2nc(N3CCC(c4nnc5ccccn45)CC3)nc(NC3(CO)CC3)c21 (stereo not shown) [Example 108]
94%		O=C(c1ccc(OC2CCN(c3nc4c(c(NC5CCOCC5)n3)[S+]([O-])CC4)CC2)cc1)N1CCOCC1 (stereo not shown) [Example 240]
73%		O=C(c1ccc(F)cc1)C1(c2ccc(F)cc2)CCN(c2nc3c(c(NC4CCOCC4)n2)[S+]([O-])CC3)CC1 (stereo not shown) [Example 297]
90%		[O-][S+]1CCc2nc(N3CCC(c4cc(-c5cccs5)[nH]n4)CC3)nc(NC3(CO)CC3)c21 (stereo not shown) [Example 285]
91%		[O-][S+]1CCc2nc(N3CCC(Oc4ccc5c(c4)CCNCC5)CC3)nc(NC3CCOCC3)c21 (stereo not shown) [Example 183, (5-Oxo-2-[4-(2,3,4,5-Tetrahydro-1H-Benzo[d]Azepin-7-Yloxy)-Piperidin-1-Yl]-6,7-Dihydro-5H-5λ^4-Thieno[3,2-d]Pyrimidin-4-Yl)-(Tetrahydropyran-4-Yl)-Amine]

inhibition at 1 µM [1]	inhibition at 1 µM [2]	Compound
81%		[O-][S+]1CCc2nc(N3CCC(O)(c4ccc(Cl)cc4)CC3)nc(NC3(CO)CC3)c21 (stereo not shown) [Example 289]
	95%	[O-][S+]1CCc2nc(N3CCC(c4nc(-c5ccncc5)no4)CC3)nc(NC3CCOCC3)c21 (stereo not shown) [Example 132]
	96%	[O-][S+]1CCc2nc(N3CCC(c4nc5cc(Cl)ccc5s4)CC3)nc(NC3CCOCC3)c21 (stereo not shown) [Example 118]
	93%	Cc1cccc(C2CCN(c3nc4c(c(NC5CCOCC5)n3)[S+]([O-])CC4)CC2)c1 (stereo not shown) [Example 7]
	92%	CC(C)[C@H](CO)Nc1nc(N2CCC(c3nc(-c4cccnc4)no3)CC2)nc2c1[S+]([O-])CC2 (stereo partly shown) [Example 162]
96%		CN1C[C@@H](Nc2nc(N3CCC(Oc4ccc(C5=NCCO5)cc4)CC3)nc3c2[S+]([O-])CC3)CCC1=O (stereo partly shown) [Example 199]
94%		CC(C)(O)C1(Nc2nc(N3CCC(c4ccc(Cl)cc4)CC3)nc3c2[S+]([O-])CC3)CC1 (stereo not shown) [Example 185, 2-(1-{2-[4-(4-chlorophenyl)-piperidin-1-yl]-5-oxo-6,7-dihydro-5H-5λ^4-thieno[3,2-d]pyrimidin-4-ylamino}-cyclopropyl)-propan-2-ol]
91%		[O-][S+]1CCc2nc(N3CCC(OCc4ccccc4)CC3)nc(NC3CCOCC3)c21 (stereo not shown) [Example 172]
	92%	CC(C)[C@H](CO)Nc1nc(N2CCC(c3cccc(C#N)c3)CC2)nc2c1[S+]([O-])CC2 (stereo partly shown) [Example 154]
	94%	N#Cc1cccc(C2CCN(c3nc4c(c(NC5CCOCC5)n3)[S+]([O-])CC4)CC2)c1 (stereo not shown) [Example 123]
	96%	CN1C[C@@H](Nc2nc(N3CCC(c4ccncc4)CC3)nc3c2[S+]([O-])CC3)CCC1=O (stereo partly shown) [Example 48]
87%		Cc1nc(C2CCN(c3nc4c(c(NC5CCOCC5)n3)[S+]([O-])CC4)CC2)oc1-c1ccc(Cl)cc1 (stereo not shown) [Example 282]
93%		CC(C)(NC(=O)c1cccc(C2CCN(c3nc4c(c(NC5CCOCC5)n3)[S+]([O-])CC4)CC2)c1)c1ccncc1 (stereo not shown) [Example 255]
97%		Cn1nc(-c2ccco2)cc1C1CCN(c2nc3c(c(NC4CCOCC4)n2)[S+]([O-])CC3)CC1 (stereo not shown) [Example 200, {2-[4-(5-furan-2-yl-2-methyl-2H-pyrazol-3-yl)-piperidin-1-yl]-5-oxo-6,7-dihydro-5H-5λ^4-thieno[3,2-d]pyrimidin-4-yl}-(tetrahydropyran-4-yl)-amine]
89%		O=C(c1ccc(C2CCN(c3nc4c(c(NC5CCOCC5)n3)[S+]([O-])CC4)CC2)cc1)N(C1CCOCC1)C1CC1 (stereo not shown) [Example 225]
93%		CN(CC1(c2ccccc2)CCN(c2nc3c(c(Nc4cccc(F)c4)n2)[S+]([O-])CC3)CC1)S(C)(=O)=O (stereo not shown) [Example 332]
90%		O=C(c1cccc(C2CCN(c3nc4c(c(NC5CCOCC5)n3)[S+]([O-])CC4)CC2)c1)N1CCOCC1 (stereo not shown) [Example 247]
92%		[O-][S+]1CCc2nc(N3CCC(c4ccccc4)CC3)nc(NC3(CO)CC3)c21 (stereo not shown) [Example 164]
